# Test results from patent publication US20070270436A1, “NOVEL AMINO- AND IMINO-ALKYLPIPERAZINES” (Recordati Ireland Limited, priority 2006, published 2007).
# Read-outs that look alike come from different tables or passages of the source.
# Tests used:
# 5-HT1A receptors = molecular target: T1, 5-HT1A receptors (Rattus norvegicus, UniProt P19327); test: Inhibition of serotonergic syndrome (forepaw treading) induced by 8-OH-DPAT in rats (post-synaptic antagonism); format: in vivo; conditions: for inhibition at 10 mg/kg: rat
# T1 construct: from tissue; host or cells: living male Sprague-Dawley rats (whole animal, behavioural read-out)
# T1 sequence (P19327 1-422): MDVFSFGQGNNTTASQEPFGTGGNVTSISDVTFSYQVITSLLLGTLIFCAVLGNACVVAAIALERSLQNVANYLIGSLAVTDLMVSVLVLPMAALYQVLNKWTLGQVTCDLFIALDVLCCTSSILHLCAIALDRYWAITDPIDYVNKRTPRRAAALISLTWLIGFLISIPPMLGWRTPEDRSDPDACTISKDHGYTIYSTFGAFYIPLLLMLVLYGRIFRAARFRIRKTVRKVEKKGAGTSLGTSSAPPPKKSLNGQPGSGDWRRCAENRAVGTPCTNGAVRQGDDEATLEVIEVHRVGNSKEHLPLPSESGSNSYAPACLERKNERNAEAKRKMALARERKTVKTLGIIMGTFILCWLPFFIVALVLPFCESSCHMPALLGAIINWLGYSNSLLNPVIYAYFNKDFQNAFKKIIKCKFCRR
# Experimental: The inhibitory effect of 5-HT1A-receptor antagonists on stereotyped forepaw treading induced in rats by subcutaneous injection of 8-OH-DPAT was evaluated by the method of Tricklebank (Tricklebank et al., Eur. J. Pharmacol., 117: 15, 1985) with minor modifications as described below.
# Male Sprague-Dawley rats [Crl: CD® (SD) IGS BR] weighing 150-175 g from Charles River Italia were used. The animals were housed with free access to food and water and maintained on a forced 12-hour-light/12-hour-dark cycle at 22-24° C. of temperature. On the day of the experiment, the rats were placed singly in clear plastic containers, 10-15 minutes before oral administration of the vehicle or compounds to be tested. For evaluation of antagonistic activity, the compounds were administered 1 and 4 hours before induction of stereotypy by 8-OH-DPAT (1 mg/kg subcutaneously). Observation sessions lasted 30 seconds and began 3 minutes after 8-OH-DPAT treatment and were repeated every 3 minutes over a period of 15 minutes.
# The appearance of the symptoms induced by postsynaptic stimulation of 5-HT1A receptors was noted, and the intensity was scored using an intensity scale in which: 0=absent, 1=equivocal, 2=present and 3=intense. Behavioural scores for treated rats were accumulated throughout the observation time (5 observation periods) and expressed as mean values of 4 rats/dose. Change in mean values of treated animals in comparison with control (vehicle) group, expressed as per-cent inhibition, was used to quantify the antagonistic activity.
# In order to quantitate the potency of the compound of Example 24 in inhibiting the stereotypy (forepaw treading) induced by 8-OH-DPAT, an ED50 value (dose inhibiting by 50% the forepaw treading) was evaluated by means of linear regression using the least square method.
# [1] = molecular target: T2, human 5HT1A-serotonergic receptor (Homo sapiens, UniProt P08908); test: Radioligand binding to recombinant 5-HT1A receptor ([3H]8-OH-DPAT, HeLa cell membranes); conditions: 1 nM [3H]8-OH-DPAT; Ki from IC50 by the Cheng equation; read-out: Ki (nM), binding affinity for 5HT1A receptor
# T2 construct: expressed in transfected cells; host or cells: HeLa (human), stably transfected; membranes
# T2 sequence (P08908 1-422): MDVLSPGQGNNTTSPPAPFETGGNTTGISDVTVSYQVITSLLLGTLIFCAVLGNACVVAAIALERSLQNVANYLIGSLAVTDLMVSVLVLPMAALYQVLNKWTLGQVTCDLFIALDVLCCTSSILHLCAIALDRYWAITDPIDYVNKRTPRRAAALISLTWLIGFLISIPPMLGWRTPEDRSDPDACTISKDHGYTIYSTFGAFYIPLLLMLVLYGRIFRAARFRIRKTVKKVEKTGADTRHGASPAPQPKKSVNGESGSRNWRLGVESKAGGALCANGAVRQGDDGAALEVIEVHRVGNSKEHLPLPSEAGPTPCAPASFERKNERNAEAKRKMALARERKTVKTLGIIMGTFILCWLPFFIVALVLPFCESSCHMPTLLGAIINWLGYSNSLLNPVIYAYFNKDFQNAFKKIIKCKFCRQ
# Method in brief: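 Membranes from HeLa cells stably expressing human 5-HT1A incubated 30 min at 30 °C with 1 nM [3H]8-OH-DPAT in 50 mM Tris pH 7.4, 2.5 mM MgCl2, 10 μM pargyline; non-specific binding with 10 μM 5-HT. Filtration read-out; IC50 by curve fitting, converted to Ki via Cheng-Prusoff.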
"% Inhibition of forepaw treading, 1 h (5-HT1A receptors; 10 mg/kg p.o., 1 h before 8-OH-DPAT 1 mg/kg s.c.) [%]","% Inhibition of forepaw treading, 4 h (5-HT1A receptors; 10 mg/kg p.o., 4 h before 8-OH-DPAT 1 mg/kg s.c.) [%]",Ki [1] [nM],"ED50 (dose inhibiting by 50% the forepaw treading) (95% CL), 1 hour (5-HT1A receptors; 1 hour after oral administration)","ED50 (dose inhibiting by 50% the forepaw treading) (95% CL), 4 hours (5-HT1A receptors; 4 hours after oral administration)","inhibition at 10 mg/kg (5-HT1A receptors; 10 mg/kg p.o., 1 h before 8-OH-DPAT 1 mg/kg s.c., read-out: % Inhibition of forepaw treading, 1 h) [%]","inhibition at 10 mg/kg (5-HT1A receptors; 10 mg/kg p.o., 4 h before 8-OH-DPAT 1 mg/kg s.c., read-out: % Inhibition of forepaw treading, 4 h) [%]",Structure (SMILES)
80,69,0.86,–,–,–,–,"COc1ccccc1N1CCN(CCC(c2ccccc2F)C(C2CCCCC2)N(C)C(C)=O)CC1 (racemic) [Example 16, (RS,SR)- and (RS,RS)-N-{-1-Cyclohexyl-2-(2-fluorophenyl)-4-[4-(2-methoxyphenyl)piperazin-1-yl]butyl}-N-methylacetamide]"
–,–,1.23,2.86 (2.12-3.8) mg/kg p.o.,3.67 (2.81-4.93) mg/kg p.o.,100,90,"COc1ccccc1N1CCN(CC[C@@H](c2ccccc2F)[C@H](NC(=S)N(C)C)C2CCCCC2)CC1 (racemic) [Example 24, 3-{(RS,SR)-1-Cyclohexyl-2-(2-fluorophenyl)-4-[4-(2-methoxyphenyl)-piperazin-1-yl]butyl}-1,1-dimethylthiourea]"
